According to patent publication US5021431A, “Imidazolyl alkyl guanidine derivatives, processes for their preparation and pharmaceutical preparations containing these compounds” (Heumann Pharma GmbH & Co., priority 1985, dated 1991):
Where a name gives a salt, the structure may show the parent alone. Read-outs that look alike come from different tables or passages of the source.

How the values were obtained:
H1 receptor = H1 receptor (Cavia porcellus, UniProt P31389); test: cell-based; details: isolated ileum of the guinea pig; for Kb: read-out: pA2 ileum (H1-antagonistic effect) (converted)
H1 receptor, sequence (P31389 whole entry): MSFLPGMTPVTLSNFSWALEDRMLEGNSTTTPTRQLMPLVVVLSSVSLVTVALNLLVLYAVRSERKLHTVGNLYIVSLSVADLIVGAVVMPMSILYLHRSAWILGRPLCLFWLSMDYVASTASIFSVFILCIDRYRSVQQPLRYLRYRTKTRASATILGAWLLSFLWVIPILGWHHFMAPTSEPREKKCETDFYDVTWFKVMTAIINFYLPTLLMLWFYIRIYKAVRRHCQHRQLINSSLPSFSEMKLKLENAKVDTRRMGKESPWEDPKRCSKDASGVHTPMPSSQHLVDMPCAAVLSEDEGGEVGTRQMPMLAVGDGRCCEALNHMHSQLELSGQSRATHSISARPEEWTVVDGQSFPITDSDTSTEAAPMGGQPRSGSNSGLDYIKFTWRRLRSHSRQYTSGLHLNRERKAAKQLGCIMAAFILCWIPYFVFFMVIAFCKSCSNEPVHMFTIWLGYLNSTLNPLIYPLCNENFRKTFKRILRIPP
Text: The new class of structures according to the invention has both an H1 -antagonistic and an H2 -agonistic active component. […] One recognized method for determining H1 -antagonistic activity is the determination of the pA2 -values in vitro (O. ARUNLAKSHANA and H. O. SCHILD (1959) Some quantitative uses of drug antagonists--Br. J. Pharmacol. Chemother. 14, 48-58).
(§1) Pharmacological Data (determined on the isolated atrium or ileum of the guinea-pig)
(§2) The values listed below represent the H2 -agonistic (pD2) and H1 -antagonistic (pA2) effect of the dual active compounds

histamine-H2 receptors = molecular target: T1, histamine-H2 receptors (Cavia porcellus, UniProt P47747); test: cell-based; set-up: species or system guinea-pig
T1 construct: determined on the isolated atrium or ileum of the guinea-pig; from tissue; host or cells: isolated right atrium of the guinea-pig
T1 sequence (P47747 whole entry): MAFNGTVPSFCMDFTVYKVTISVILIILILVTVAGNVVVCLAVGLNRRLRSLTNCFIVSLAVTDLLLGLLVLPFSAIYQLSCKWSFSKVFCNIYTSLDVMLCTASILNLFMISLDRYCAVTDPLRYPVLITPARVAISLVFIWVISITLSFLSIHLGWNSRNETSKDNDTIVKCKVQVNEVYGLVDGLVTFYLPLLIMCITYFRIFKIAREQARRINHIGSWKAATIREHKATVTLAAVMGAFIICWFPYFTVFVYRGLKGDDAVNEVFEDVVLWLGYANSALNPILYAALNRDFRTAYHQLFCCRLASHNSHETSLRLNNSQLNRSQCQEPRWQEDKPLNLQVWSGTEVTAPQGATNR
Text: For determining the H2 -agonistic activity (pD2 -values), use is made of the method according to J. M. VAN ROSSUM, (1963), Cumulative dose-response curves, II, Technique for the making of dose-response curves in isolated organs and the evaluation of drug parameters, Arch. Int. Pharmacodyn. Ther. 143, 299-307.
as §1, §2

[1] = isolated right atrium of the guinea pig, read-out: pD2 right atrium (H2-agonistic effect) (converted)
[2] = isolated right atrium of the guinea pig

SMILES | Kb (H1 receptor) | EC50 (histamine-H2 receptors; [1]) | pA2 ileum (H1-antagonistic effect) (H1 receptor) | pD2 right atrium (H2-agonistic effect) (histamine-H2 receptors; [2]) | EC50 (histamine-H2 receptors)
Cc1ccc(N(C)CCCNC(=N)NCCCc2c[nH]cn2)nc1 [Example 10, N^1-[3-[N-(5-Methyl-pyridin-2-yl)-methylamino]propyl]-N^2-[3-(1H-imidazol-4-yl)propyl]guanidine trihydrochloride] | 112 nM | 891 nM | – | – | –
N=C(NCCCCc1cccnc1)NCCCc1c[nH]cn1 [Example 12, N^1-[4-(Pyridin-3-yl)butyl]-N^2-[3-(1H-imidazol-4-yl)propyl]guanidine trihydrochloride] | 562 nM | 200 nM | – | – | –
Cc1cc(Br)cnc1CCCCNC(=N)NCCCc1c[nH]cn1 [Example 17, N^1-[4-(5-Bromo-3-methyl-pyridin-2-yl)butyl]-N^2 [3-(1H-imidazol-4-yl)propyl]-guanidine trihydrochloride] | 3.24 nM | 1200 nM | – | – | –
Cc1[nH]c(CN(C)C)nc1CSCCNC(=N)NCCCc1c[nH]cn1 [Example 51, N-[2-[(2-Dimethylaminomethyl-5-methylimidazol-4-yl)methylthio]ethyl]-N'-[3-(imidazol-4-yl)propyl]-guanidine] | 3160 nM | 67.6 nM | – | – | –
CC(SCCNC(=N)NCCCc1c[nH]cn1)c1ccccc1 (stereo not drawn) [Example 60, N-[3-(Imidazol-4-yl)propyl]-N'-[2-[(1-phenylethyl)thio]ethyl]-guanidine] | 2290 nM | 288 nM | – | – | –
Cc1ccc(C(SCCNC(=N)NCCCc2c[nH]cn2)c2ccccc2)cc1 (stereo not drawn) [Example 62, N-[3-(Imidazol-4-yl)propyl]-N'-[2-[(p-methyl-α-phenylbenzyl)thio]ethyl]-guanidine] | 11500 nM | 3890 nM | – | – | –
N=C(NCCCc1c[nH]cn1)NCCC(c1ccccc1)c1ccccc1 [Example 78, N-[3-(Imidazol-4-yl)propyl]-N'-(3.3-diphenylpropyl)-guanidine] | 63.1 nM | 67.6 nM | 7.20 | – | –
Cc1[nH]cnc1CCCNC(=N)NCCC(c1ccccc1)c1ccccc1 [Example 96, N-[3-(5-Methylimidazol-4-yl)propyl]-N'-(3,3-diphenylpropyl)-guanidine] | 126 nM | 126 nM | 6.9 | – | –
N=C(NCCCc1c[nH]cn1)NCCCC(c1ccccc1)c1ccccc1 [Example 97, N-[3-(Imidazol-4-yl)propyl]-N'(4,4-diphenylbutyl)-guanidine] | 158 nM | 200 nM | – | – | –
N=C(NCCCc1c[nH]cn1)NCCN(Cc1ccccc1)c1ccccc1 [Example 101, N^1-[3-(4-Imidazolyl)propyl]-N^2-[2-(N-benzyl-N-phenylamino)-ethyl]-guanidine trihydrochloride] | – | – | 7.41 | 6.15 | –
N=C(NCCCc1c[nH]cn1)NCCN(Cc1ccccc1)c1ccc(F)cc1 [Example 102, N^1-[3-(4-Imidazolyl)propyl]-N^2-[2-(N-benzyl-N-(4-fluorophenyl)amino)ethyl]-guanidine trihydrochloride] | 25.1 nM | 234 nM | – | – | –
N=C(NCCCc1c[nH]cn1)NCCN(Cc1ccccc1)c1ccc(Cl)cc1 [Example 103, N^1-[3-(4-Imidazolyl)propyl]-N^2-[2-(N-benzyl-N-(4-chlorophenyl)amino)ethyl]-guanidine trihydrochloride] | 29.5 nM | 2690 nM | – | – | –
N=C(NCCCc1c[nH]cn1)NCCN(Cc1ccccc1)c1ccc(Br)cc1 [Example 104, N^1-[3-(4-Imidazolyl)propyl]-N^2-[2-(N-benzyl-N-(4-bromophenyl)amino)ethyl]-guanidine trihydrochloride] | 57.5 nM | 6920 nM | – | – | –
N=C(NCCCc1c[nH]cn1)NCCSCc1cccs1 [Example 105, N-[3-(Imidazol-4-yl)propyl]-N'-[2-(2-thenylthio)ethyl]-guanidine] | 1230 nM | – | – | – | 51.3 nM
CC(CSCc1ccccn1)NC(=N)NCCCc1c[nH]cn1 (stereo not drawn) [Example 121, N-[3-(Imidazol-4-yl)propyl]-N'-[1-methyl-2-[(pyrid-2-yl)methylthio]-ethyl]-guanidine] | 2000 nM | 51.3 nM | – | – | –
N=C(NCCCc1c[nH]cn1)NCCSC(c1ccccc1)c1ccccn1 (stereo not drawn) [Example 123, N-[3-(Imidazol-4-yl)propyl]-N'-[2-[(phenyl(pyrid-2-yl)methyl)thio]ethyl]-guanidine] | – | 224 nM | 7.0 | – | –

SMILES | Kb (H1 receptor) | EC50 (histamine-H2 receptors; [1]) | pA2 ileum (H1-antagonistic effect) (H1 receptor) | pD2 right atrium (H2-agonistic effect) (histamine-H2 receptors; [2]) | EC50 (histamine-H2 receptors)
N=C(NCCCc1c[nH]cn1)NCCC(c1ccccc1)c1ccccn1 (stereo not drawn) [Example 127] | 52.5 nM | 39.8 nM | 7.28 | 7.4 | –
N=C(NCCCc1c[nH]cn1)NCCC(c1ccc(Cl)cc1)c1ccccn1 (stereo not drawn) [Example 129, N-[3-(4-Chlorophenyl)-3-(pyrid-2-yl)propyl]-N'-[3-(imidazol-4-yl)propyl]-guanidine] | 31.6 nM | 63.1 nM | – | – | –
N=C(NCCCc1c[nH]cn1)NCCC(c1ccc(Br)cc1)c1ccccn1 (stereo not drawn) [Example 131, N-[3-(4-Bromophenyl)-3-(pyrid-2-yl)propyl]-N'-[3-(imidazol-4-yl)propyl]-guanidine] | 316 nM | 83.2 nM | – | – | –
NC(=NCCC(c1ccc(F)cc1)c1ccccn1)NCCCc1cnc[nH]1 (stereo not drawn) [Example 133, N-[3-(4-Fluorophenyl)-3-(pyrid-2-yl)propyl]-N'-[3-(imidazol-4-yl)propyl]-guanidine] | 31.6 nM | 12.6 nM | – | – | –
N=C(NCCCc1c[nH]cn1)NCCC(c1ccccn1)c1cccs1 (stereo not drawn) [Example 134, N-[3-(Imidazol-4-yl)propyl]-N'-[3-(pyrid-2-yl)-3-(2thienyl)propyl]-guanidine] | 50.1 nM | 93.3 nM | – | – | –
N=C(NCCCc1c[nH]cn1)NCCCC(c1ccccc1)c1ccccn1 (stereo not drawn) [Example 136, N-[3-(Imidazol-4-yl)propyl]-N'-[4-phenyl-4-(pyrid-2-yl)butyl]-guanidine] | – | 112 nM | 6.6 | – | –
NC(=NCCN(Cc1ccccc1)c1ccccn1)NCCCc1c[nH]cn1 [Example 140, N^1-[3-(4-imidazolyl)propyl]-N^2-[2-(N-benzyl-N-(pyrid-2-yl)-amino)ethyl]-guanidine trihydrochloride] | 8.91 nM | 1260 nM | – | – | –
N=C(NCCCc1c[nH]cn1)NCCN(Cc1ccc(Cl)cc1)c1ccccn1 [Example 141, N^1-[3-(1H-Imidazol-4-yl)propyl]-N^2-[2-[N-(4-chlorobenzyl) N-(pyridin-2-yl).amino]ethyl]-guanidine] | 12.3 nM | 1000 nM | – | – | –
COc1ccc(CN(CCN=C(N)NCCCc2c[nH]cn2)c2ccccn2)cc1 [Example 142, N^1-[3-(1H-Imidazol-4-yl)propyl]-N2-[2-[N-(4-methoxybenzyl)-N-(pyridin-2-yl)-amino]ethyl]-guanidine] | 8.32 nM | 1580 nM | – | – | –
NC(=NCCN(Cc1ccc(F)cc1)c1ccccn1)NCCCc1c[nH]cn1 [Example 143, N^1-[3-(1H-Imidazol-4-yl)propyl]-N^2-[2-[N-(4-fluorobenzyl)-N-(pyridin-2-yl)-amino]ethyl]-guanidine] | 2.57 nM | 1950 nM | – | – | –
Cc1cc(Br)cnc1N(CCNC(=N)NCCCc1c[nH]cn1)Cc1ccccc1 [Example 144, N^1-[2-[N-(5-Bromo-3-methyl-pyridin-2-yl)-benzylamino]ethyl]-N^2-[3-(1H-imidazol-4-yl)propyl]-guanidine trihydrochloride] | 398 nM | 6030 nM | – | – | –
N=C(NCCCc1c[nH]cn1)NCCN(c1ccccc1)c1ccccc1 [Example 145, N^1-[3-(Imidazol-4-yl)propyl]-N^2-[2-(diphenylamino)ethyl]-guanidine trihydrochloride] | 398 nM | 6030 nM | – | – | –
N=C(NCCCc1c[nH]cn1)NCCN(c1ccccc1)c1ccc(F)cc1 [Example 146, N^1-[3-(Imidazol-4-yl)propyl]-N^2-[2-N-(phenyl-N(4-fluorophenyl)amino)ethyl]-guanidine trihydrochloride] | 1000 nM | 1100 nM | – | – | –
N=C(NCCCc1c[nH]cn1)NCCN(c1ccccc1)c1ccccn1 [Example 147, N^1-[3-(Imidazol-4-yl)propyl]-N^2-[2-(N-(2-pyridyl)-N-phenylamino)ethyl]-guanidine trihydrochloride] | 126 nM | 100 nM | – | – | –
N=C(NCCCc1c[nH]cn1)NCCN(c1ccc(F)cc1)c1ccccn1 [Example 148, N^1-[3-(Imidazol-4-yl)propyl]-N^2-[2-(N-(2-pyridyl)N-(4-fluorophenyl)amino)ethyl]-guanidine trihydrochloride] | 15.8 nM | 316 nM | – | – | –
